Measurements: patent US7622611B2, “Pentafluorosulfanylbenzoylguanidines, process for their preparation, use as a medicament or diagnostic aid, and medicament comprising same” (Sanofi-Aventis Deutschland GmbH, priority 2003, dated 2009)

Tests used:
[1] = In vivo pharmacokinetics, profiling with the "n in one method" in beagle dog; conditions: for Volume of distribution: fasting male beagle dog, single i.v. bolus into jugular vein, about 1 mg/kg, both substances given together
Experimental: In vivo pharmacokinetics—profiling with the “n in one method”
The exposure data and the volumes of distribution were determined as characteristic pharmacokinetic data as follows:
The NHE-1 inhibitor of example 1 of the invention and, as reference substance, the known NHE-1 inhibitor cariporide with formula
[drawing 23] were dissolved in an aqueous, slightly acidic medium (water, pH 4, adjusted with 1M hydrochloric acid). The concentration of the aqueous formulation prepared in this way was about 1.5 mg of each substance per 1 g of solution. 10 ml of this formulation were administered as a single bolus by catheter into the jugular vein of a fasting male beagle dog (dose about 1 mg of each substance administered per kg of the dog's body weight). Blood samples were taken by means of a second catheter after 5 min, 15 min, 30 min, 1 h, 2 h, 4 h, 8 h and 24 h, and heparinized plasma was prepared by centrifugation at 1000 G in appropriate plasma tubes.
The plasma samples were worked up and, after an HPLC separation, quantified by MS/MS. The high specificity of this method permitted simultaneous determination of a plurality of substances. The exposures could be calculated using the WinNonlin computer program from the concentration-time plots (see FIG. 1) and compared with the exposure of the known NHE-1 reference substance. Since the various substances were measured in the same animal at the same time, the result was an accurate comparison of the compounds, and a ranking of the volumes of distribution was possible.
FIG. 1: concentration-time plots in the blood plasma of dogs after administration of in each case approx. 1 mg/kg of the compound of example 1 and of cariporide.

[2] = biological target: T1, human NHE-1 (Homo sapiens, UniProt P19634); assay: NHE-1 inhibition, FLIPR assay measuring pHi recovery in transfected cell lines; format: cell-based; conditions: transfected LAP-1 cell line expressing human NHE-1, BCECF pHi recovery, read-out: NHE1 inhibition IC50
T1 construct: expressed in transfected cells; host or cells: LAP-1 (parental line without endogenous NHE activity), G418 selection
Experimental: The inhibitory concentration IC50 for NHE-1 inhibition was determined as follows:
IC50 for NHE-1 inhibition was determined in an FLIPR assay by measurement of the pHi recovery in transfected cell lines which express human NHE-1.
The assay was carried out in an FLIPR (fluorometric imaging plate reader) with black-walled 96-well microtiter plates with clear bases.
The growth medium for the transfected cells (Iscove+10% fetal calf serum) additionally contained G418 as selection antibiotic in order to ensure the presence of the transfected sequences.
The actual assay started with the removal of the growth medium and addition of 100 μl of loading buffer per well (5 μM BCECF-AM [2′,7′-bis(carboxyethyl)-5-(and -6-)carboxyfluorescein, acetoxymethyl ester] in 20 mM NH4Cl, 115 mM choline chloride, 1 mM MgCl2, 1 mM CaCl2, 5 mM KCl, 20 mM HEPES, 5 mM glucose; pH 7.4 [adjusted with KOH]). The cells were then incubated at 37° C. for 20 minutes. This incubation led to loading of the cells with the fluorescent dye whose fluorescence intensity depends on pHi, and with NH4Cl that made the cells slightly alkaline.
The nonfluorescent dye precursor BCECF-AM is, as ester, membrane-permeable. The actual dye BCECF is not membrane-permeable but is liberated inside cells by esterases. […]

T1 sequence (P19634 whole entry): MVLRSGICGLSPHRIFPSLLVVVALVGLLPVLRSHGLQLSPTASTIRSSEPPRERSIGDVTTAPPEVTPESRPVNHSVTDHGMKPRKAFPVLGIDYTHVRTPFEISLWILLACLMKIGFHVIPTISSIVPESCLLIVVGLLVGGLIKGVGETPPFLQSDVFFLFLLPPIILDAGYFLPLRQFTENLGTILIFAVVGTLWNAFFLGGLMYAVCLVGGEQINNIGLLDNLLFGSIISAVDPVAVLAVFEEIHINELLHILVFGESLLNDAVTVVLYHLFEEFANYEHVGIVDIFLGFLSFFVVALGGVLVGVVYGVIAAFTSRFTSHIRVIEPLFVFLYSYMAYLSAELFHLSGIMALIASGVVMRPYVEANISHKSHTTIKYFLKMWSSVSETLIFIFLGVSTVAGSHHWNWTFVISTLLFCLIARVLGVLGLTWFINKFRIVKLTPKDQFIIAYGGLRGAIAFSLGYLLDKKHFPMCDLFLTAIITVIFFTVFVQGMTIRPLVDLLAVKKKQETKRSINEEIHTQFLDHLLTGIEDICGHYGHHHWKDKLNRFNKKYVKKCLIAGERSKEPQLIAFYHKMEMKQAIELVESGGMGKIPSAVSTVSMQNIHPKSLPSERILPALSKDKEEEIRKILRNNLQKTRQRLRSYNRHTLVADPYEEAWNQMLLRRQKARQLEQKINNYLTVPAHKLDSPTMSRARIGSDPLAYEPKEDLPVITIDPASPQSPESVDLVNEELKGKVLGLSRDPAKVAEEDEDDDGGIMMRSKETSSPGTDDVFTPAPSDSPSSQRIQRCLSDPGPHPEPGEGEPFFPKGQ

| Compound | Exposure relative to reference substance cariporide (times higher) ([1]; dog plasma, about 1 mg/kg i.v., from concentration-time plots, FIG. 1) | Volume of distribution [1] | IC50 [2] [nM] | melting point [°C] | Detectability in plasma after 24 hours ([1]; dog plasma, 24 h after about 1 mg/kg i.v.) |
| --- | --- | --- | --- | --- | --- |
| Cc1cc(S(F)(F)(F)(F)F)c(S(C)(=O)=O)cc1C(=O)N=C(N)N [Example 1, N-(5-Methanesulfonyl-2-methyl-4-pentafluorosulfanylbenzoyl)guanidine] | 2-3 times | 1.67 l/kg of body weight | 49 | 254 to 256 | – |
| CC(C)c1ccc(C(=O)N=C(N)N)cc1S(C)(=O)=O.CS(=O)(=O)O [cariporide, reference compound] | – | 2.94 l/kg of body weight | – | – | no longer detectable |
